Experiment [1] deals with T1, 5-lipoxygenase/FLAP (Homo sapiens, UniProt P09917+P20292).
T1 sequence (P09917 whole entry): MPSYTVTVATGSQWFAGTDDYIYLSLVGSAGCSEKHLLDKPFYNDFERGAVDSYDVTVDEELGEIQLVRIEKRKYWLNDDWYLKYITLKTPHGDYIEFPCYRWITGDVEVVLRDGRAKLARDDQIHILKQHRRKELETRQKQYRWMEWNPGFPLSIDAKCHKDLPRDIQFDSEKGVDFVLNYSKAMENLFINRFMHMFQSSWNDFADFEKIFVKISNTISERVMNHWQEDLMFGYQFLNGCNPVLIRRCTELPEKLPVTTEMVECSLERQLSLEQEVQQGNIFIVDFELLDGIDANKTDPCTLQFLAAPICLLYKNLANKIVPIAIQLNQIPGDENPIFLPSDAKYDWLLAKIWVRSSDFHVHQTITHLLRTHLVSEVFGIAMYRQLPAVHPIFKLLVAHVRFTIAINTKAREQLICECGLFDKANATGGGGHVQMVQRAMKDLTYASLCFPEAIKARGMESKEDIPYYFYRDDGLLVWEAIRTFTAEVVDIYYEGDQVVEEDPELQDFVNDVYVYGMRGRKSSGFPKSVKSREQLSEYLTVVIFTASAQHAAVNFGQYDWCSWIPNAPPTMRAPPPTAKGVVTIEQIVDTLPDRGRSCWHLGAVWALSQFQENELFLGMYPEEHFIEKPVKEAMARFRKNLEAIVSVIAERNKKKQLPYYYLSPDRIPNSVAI
T1 sequence (P20292 whole entry): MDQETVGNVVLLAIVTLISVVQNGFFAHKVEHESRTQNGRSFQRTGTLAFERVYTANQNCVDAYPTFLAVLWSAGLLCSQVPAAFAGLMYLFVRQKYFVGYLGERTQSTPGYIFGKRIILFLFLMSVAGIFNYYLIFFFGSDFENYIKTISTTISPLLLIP
Nature of the experiment: (§1) Human whole blood was stimulated with calcium ionophore (A23187) and LTB 4 measured by enzyme immunoassay. The experiment is classed as functional, tissue-based.

In experiment [2] the target is T1, 5-lipoxygenase/FLAP. Nature of the experiment: Inhibition of calcium ionophore (A23187) stimulated LTB4 formation in human neutrophils. The experiment is classed as functional.
The test system of experiment [3] is Rattus norvegicus. Briefly: Compound was tested in vivo against rat anaphylaxis in the peritoneal cavity; Not active. The format is functional, organism-based.
Experiment [4] has as its system Rattus norvegicus. Briefly: Compound was tested in vivo against rat anaphylaxis in the peritoneal cavity at concentration of 1 umol/kg. The experiment is classed as functional.
The species named for experiment [5] is Homo sapiens. Described as §1. The experiment is classed as functional.
Experiment [6] deals with T2, Polyunsaturated fatty acid 5-lipoxygenase (Rattus norvegicus, UniProt P12527).
T2 sequence (P12527 whole entry): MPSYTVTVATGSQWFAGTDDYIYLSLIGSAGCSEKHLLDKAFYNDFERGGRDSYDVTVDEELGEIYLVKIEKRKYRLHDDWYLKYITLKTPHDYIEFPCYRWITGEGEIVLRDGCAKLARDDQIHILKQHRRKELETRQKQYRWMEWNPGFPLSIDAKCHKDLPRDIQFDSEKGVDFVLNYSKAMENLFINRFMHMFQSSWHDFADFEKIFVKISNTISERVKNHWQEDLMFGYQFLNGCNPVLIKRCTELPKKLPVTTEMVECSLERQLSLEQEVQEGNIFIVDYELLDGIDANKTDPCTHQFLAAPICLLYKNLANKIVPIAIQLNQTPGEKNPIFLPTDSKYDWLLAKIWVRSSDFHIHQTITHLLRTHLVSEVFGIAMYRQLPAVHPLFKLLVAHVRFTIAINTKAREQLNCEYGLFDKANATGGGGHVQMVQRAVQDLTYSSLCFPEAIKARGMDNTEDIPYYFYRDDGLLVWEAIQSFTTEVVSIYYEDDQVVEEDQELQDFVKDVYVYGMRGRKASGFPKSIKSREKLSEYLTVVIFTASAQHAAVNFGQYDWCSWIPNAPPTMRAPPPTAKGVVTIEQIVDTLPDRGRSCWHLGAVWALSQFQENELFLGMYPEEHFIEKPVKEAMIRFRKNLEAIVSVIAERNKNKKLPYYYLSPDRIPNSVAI
Nature of the experiment: Compound was tested for inhibition of 5-lipoxygenase activity in a broken cell supernatant rat basophilic leukemia cells.

Experiment [7] deals with Rattus norvegicus. Briefly: Compound was tested in vivo against rat anaphylaxis in the peritoneal cavity at 60 umol/kg. The experiment is classed as functional.
The species named for experiment [8] is Homo sapiens. Briefly: Compound was tested for inhibition of calcium ionophore (A23187) stimulated LTB4 formation in human neutrophils at 100 nM. The format is functional.
The subject of experiment [9] is Rattus norvegicus. Nature of the experiment: Compound was tested in vivo against rat anaphylaxis in the peritoneal cavity at concentration of 100 umol/kg; Not active. The format is functional, organism-based.
Experiment [10] concerns Rattus norvegicus. Nature of the experiment: Compound was tested in vivo against rat anaphylaxis in the peritoneal cavity. The format is functional.
The target of experiment [11] is T2, Polyunsaturated fatty acid 5-lipoxygenase. Briefly: Compound was tested for inhibition of 5-lipoxygenase activity in a broken cell supernatant rat basophilic leukemia cells at concentration of 32 uM; Not active.
The target is the same in experiment [12]. Nature of the experiment: Compound was tested for inhibition of 5-lipoxygenase activity in a broken cell supernatant rat basophilic leukemia cells at concentration of 50 uM; Not active.
Experiment [13] deals with Rattus norvegicus. Briefly: Compound was tested in vivo against rat anaphylaxis in the peritoneal cavity at concentration of 100 umol/kg. The format is functional.

Each structure is given as a SMILES string. Active and inactive are the calls of the source. The calls are words filed in the database; no cut-off is given here.

In general, IC50 refers to the point on the concentration scale where inhibition reaches its midpoint. For orientation: ED50 means the midpoint of the dose-response relation. For `CO/N=C/C(C)(C)Cc1c(SC(C)(C)C)c2cc(C(C)C)ccc2n1Cc1ccc(Cl)cc1`, the IC50 worked out at 11000 nM on 5-lipoxygenase/FLAP [1] and 0.34 nM on 5-lipoxygenase/FLAP [2]. Besides, in the experiment with Rattus norvegicus [3], the ED50 result was “inactive”.
As a reminder, the inhibition in vivo is the share of the control response that was lost under treatment. As a reminder, the Inhibition is how much of the control response was suppressed. `CC(C)(C)Sc1c(CC(C)(C)C(=O)O)n(Cc2ccc(Cl)cc2)c2ccc(OCc3nccs3)cc12` showed an inhibition in vivo at 1 µmol/kg in the experiment on Rattus norvegicus [4] of 16%. Also, the half-inhibitory concentration (IC50) at 5-lipoxygenase/FLAP [2] was 7 nM. Further, in the experiment filed under Homo sapiens [5], the Inhibition is recorded as 41%.
Regarding `CC(C)c1ccc2c(c1)c(SC(C)(C)C)c(CC(C)(C)NC(=O)N(C)O)n2Cc1ccc(Cl)cc1`, the figures for the IC50 (on 5-lipoxygenase/FLAP [1]; at 5-lipoxygenase/FLAP [2]; in experiment [6]) were 1300 nM, 0.15 nM and 7500 nM, respectively. In the experiment on Rattus norvegicus [7], this compound displayed an inhibition in vivo at 60 µmol/kg of 49%.
A word on the inhibition: it is the relative decrease from the control value, in per cent. Regarding `CC(C)(C)Sc1c(CC(C)(C)C(=O)O)n(Cc2ccc(Cl)cc2)c2ccc(OCc3ccncc3)cc12`, the half-inhibitory concentration (IC50) on 5-lipoxygenase/FLAP [1] was determined as 840 nM. Further, in the experiment listed under Homo sapiens [8], the inhibition at 0.1 µM is 100%. Also, in the experiment on Rattus norvegicus [9], the ED50 result was “inactive”.
As for `CC(C)(C)Sc1c(CC(C)(C)C(=O)O)n(Cc2ccc(Cl)cc2)c2ccc(OCc3cscn3)cc12`, the IC50 on 5-lipoxygenase/FLAP [1] worked out at 40 nM; on 5-lipoxygenase/FLAP [2] it was 4 nM. For the same compound, it took a dose of 1.8 µmol/kg to reach the 50% effect level with Rattus norvegicus [10] (ED50).
Turning to `CC(C)(C)Sc1c(CC(C)(C)C(=O)O)n(Cc2ccc(Cl)cc2)c2ccc(OCc3cccc(Cl)n3)cc12`, the IC50 on 5-lipoxygenase/FLAP [1] is 110 nM; at 5-lipoxygenase/FLAP [2], 17 nM. The same compound showed an ED50 with Rattus norvegicus [10] of 1.2 µmol/kg.
In the same order, the values of `CC(C)c1ccc2c(c1)c(SC(C)(C)C)c(CC(C)(C)/C=N/OCC(=O)O)n2Cc1ccc(Cl)cc1` are 680 nM, 0.1 nM and 3 µmol/kg.
The matching figures for `CC(C)(/C=N/OCC(=O)O)Cc1c(SC(C)(C)C)c2cc(OCc3ccccn3)ccc2n1Cc1ccc(Cl)cc1`: 600 nM, 13 nM and 0.12 µmol/kg.
For `CC(C)c1ccc2c(c1)c(SC(C)(C)C)c(CC(C)(C)CN(O)C(N)=O)n2Cc1ccc(Cl)cc1`, the results for the IC50 (on 5-lipoxygenase/FLAP [1]; at 5-lipoxygenase/FLAP [2]; in [6]) were 1600 nM, 0.17 nM and 7500 nM, respectively. Further, in the experiment on Rattus norvegicus [10], it took a dose of 46 µmol/kg to reach the 50% effect level (ED50).
With `CC(C)c1ccc2c(c1)c(SC(C)(C)C)c(CC(C)(C)C(=O)O)n2Cc1ccc(Cl)cc1`, the IC50 is 340 nM on 5-lipoxygenase/FLAP [1], 0.03 nM on 5-lipoxygenase/FLAP [2] and “Not Active” in experiment [11]. The compound also displayed an ED50 with Rattus norvegicus [10] of 16 µmol/kg.
Turning to `CC(C)(/C=N/OCC(=O)O)Cc1c(SC(C)(C)C)c2cc(OCc3cccc(Cl)n3)ccc2n1Cc1ccc(Cl)cc1`, the IC50 stood at 230 nM on 5-lipoxygenase/FLAP [1] and 10 nM on 5-lipoxygenase/FLAP [2]. The 50% effective dose (ED50) with Rattus norvegicus [10] amounted to 2.6 µmol/kg.
For `CC(C)(C)Sc1c(CC(C)(C)C(=O)O)n(Cc2ccc(Cl)cc2)c2ccc(OCc3nc4ccccc4s3)cc12`, the inhibition in vivo at 1 µmol/kg in the experiment on Rattus norvegicus [4] came to 71%. For the same compound, the values for the IC50 at 5-lipoxygenase/FLAP [1] and at 5-lipoxygenase/FLAP [2] were 360 nM and 10 nM, respectively.
Regarding `CC(C)(C)Sc1c(CC(C)(C)C(=O)O)n(Cc2ccc(Cl)cc2)c2ccc(OCc3ccc4ccccc4c3)cc12`, the IC50 was 4420 nM at 5-lipoxygenase/FLAP [1] and 12 nM on 5-lipoxygenase/FLAP [2]. Also, the ED50 entry with Rattus norvegicus [9] is “inactive”.
`CC(C)(/C=N/OCC(=O)O)Cc1c(SC(C)(C)C)c2cc(OCc3cscn3)ccc2n1Cc1ccc(Cl)cc1`: the results for the 50% inhibitory concentration (IC50) on 5-lipoxygenase/FLAP [1] and on 5-lipoxygenase/FLAP [2] were 180 nM and 11 nM, respectively. Further, in the experiment with Rattus norvegicus [10], it took a dose of 44 µmol/kg to reach the 50% effect level (ED50).
The matching figures for `CC(C)(C)Sc1c(CC(C)(C)C(=O)O)n(Cc2ccc(Cl)cc2)c2ccc(OCc3ccc4ccccc4n3)cc12` [QUIFLAPON]: 200 nM, 8 nM and 1.6 µmol/kg.
Regarding `CC(C)c1ccc2c(c1)c(SC(C)(C)C)c(CC(C)(C)CNC(N)=O)n2Cc1ccc(Cl)cc1`, the IC50 is 970 nM at 5-lipoxygenase/FLAP [1], 0.18 nM on 5-lipoxygenase/FLAP [2] and “Not Active” in [12]. This compound also registered a 50% effective dose (ED50) in the experiment on Rattus norvegicus [10] of 11 µmol/kg.
With `CC(C)c1ccc2c(c1)c(SC(C)(C)C)c(CC(C)(C)/C=N/O)n2Cc1ccc(Cl)cc1`, the IC50 at 5-lipoxygenase/FLAP [1] was determined as 2200 nM; at 5-lipoxygenase/FLAP [2] it was 0.27 nM. The compound further showed an inhibition in vivo at 100 µmol/kg in the experiment with Rattus norvegicus [13] of 46%.
As to `CC(C)(/C=N/OCC(=O)O)Cc1c(SC(C)(C)C)c2cc(OCc3ccc4ccccc4n3)ccc2n1Cc1ccc(Cl)cc1`, the concentration for half-maximal inhibition (IC50) at 5-lipoxygenase/FLAP [1] stood at 600 nM; on 5-lipoxygenase/FLAP [2], 12 nM. Moreover, it took a dose of 0.24 µmol/kg to reach the 50% effect level in the experiment on Rattus norvegicus [10] (ED50).
For the compound `CC(C)(C)Sc1c(CC(C)(C)C(=O)O)n(Cc2ccc(Cl)cc2)c2ccc(OCc3ccccn3)cc12`, the half-maximal inhibitory concentration (IC50) at 5-lipoxygenase/FLAP [1] was found to be 50 nM. In the experiment on Rattus norvegicus [10], this compound registered an ED50 of 0.16 µmol/kg.
Regarding `CC(C)(C)Sc1c(CC(C)(C)C(=O)O)n(Cc2ccc(Cl)cc2)c2ccc(OCc3cccnc3)cc12`, the figures for the half-inhibitory concentration (IC50) on 5-lipoxygenase/FLAP [1] and at 5-lipoxygenase/FLAP [2] were 1090 nM and 17 nM, respectively. Besides, the inhibition in vivo at 100 µmol/kg with Rattus norvegicus [13] was found to be 4%.

Source of the values: ChEMBL document CHEMBL1129110, “O-alkylcarboxylate oxime and N-hydroxyurea analogs of substituted indole leukotriene biosynthesis inhibitors” (Bioorg Med Chem Lett, 1996).
